Results: paper PMC8058401, “Identification and Characterization of Zika Virus NS5 Methyltransferase Inhibitors” (Frontiers in Cellular and Infection Microbiology, 2021)
Like-named read-outs stand apart in the source and are kept apart here.

Columns and labels:
ZIKV NS5 WT-MTase = ZIKV NS5 WT-MTase (Zika virus, UniProt A0A024B7W1); assay: surface plasmon resonance assay, WT-MTase; type: binding
ZIKV (SMGC-1) = assay: cell viability assay based on ZIKV-induced cytopathic effect (CPE) in Huh-7 cells; conditions: Zika virus, Huh-7, read-out: EC50, protection from ZIKV induced CPE
ZIKV NS5 K105A-MTase = ZIKV NS5 K105A-MTase (Zika virus, UniProt A0A024B7W1, K2625A); assay: luminescence-based methyltransferase assay, K105A-MTase
[1] = target: ZIKV NS5 MTase (WT-MTase) (Zika virus, UniProt A0A024B7W1); assay: biochemical
ZIKV [2] = assay: virus yield reduction assay by qRT-PCR in Huh-7 cells; conditions: Huh7 cells, 72 hpi; for effect on viral RNA copy numbers: dose dependent
SARS-CoV-2 3CL-protease = tested on: SARS-CoV-2 3CL-protease; design: method as in Jang et al., 2020; conditions: dose-dependent; ref Jang et al., 2020; cited from earlier work
CCK-8 cytotoxicity assay = conditions: human
ZIKV [3] = conditions: cited from earlier work
NS5 MTase of DENV = target: NS5 MTase of DENV; design: method as in Dong et al., 2008; conditions: ref Dong et al., 2008; cited from earlier work
WNV = tested on: WNV; design: method as in Dong et al., 2008; Tao et al., 2018; conditions: ref Dong et al., 2008; Tao et al., 2018; read-out: EC50, anti-virus activity for WNV; cited from earlier work
DENV = tested on: DENV; design: method as in Dong et al., 2008; Tao et al., 2018; conditions: ref Dong et al., 2008; Tao et al., 2018; read-out: EC50, anti-virus activity for DENV; cited from earlier work
NS5 MTase of WNV = target: NS5 MTase of WNV; design: method as in Dong et al., 2008; conditions: ref Dong et al., 2008; cited from earlier work

O=c1c(O)cc([C@H]2Oc3cc(O)cc(O)c3C[C@H]2O)cc2c([C@H]3Oc4cc(O)cc(O)c4C[C@H]3O)cc(O)c(O)c12 [theaflavin]
Kd (ZIKV NS5 WT-MTase): 64.4 µM
EC50 (ZIKV (SMGC-1)): 8.19 µM
IC50 (ZIKV NS5 K105A-MTase): 37.8 µM
IC50 [1]: 10.1 µM
inhibition at 20 µM ([1]; at 20 μM, read-out: MTase inhibitory activity in initial screening): > 50%
reduction of viral RNA detected in the supernatant (ZIKV [2]; 20 μM): more than 50%
effect on viral RNA copy numbers (ZIKV [2]): significantly reduced viral RNA copy numbers
inhibitory activity toward SARS-CoV-2 by targeting the 3CL-protease (SARS-CoV-2 3CL-protease): significant inhibitory activity
CC50 at 24 h (CCK-8 cytotoxicity assay): > 128 µM

CCN(CC)CCCC(C)Nc1ccnc2cc(Cl)ccc12 (stereo not shown) [chloroquine]
EC50 (ZIKV [3]; ref Li C. et al., 2017, Han et al., 2019, read-out: EC50, ZIKV infection in vitro): 1 to 5 µM
EC50 (ZIKV (SMGC-1)): 2.55 µM
effect on viral RNA copy numbers (ZIKV [2]): significantly reduced viral RNA copy numbers

Cc1cc(N)c2cc(NC(=O)Nc3ccc4nc(C)cc(N)c4c3)ccc2n1 [NSC 12155]
inhibitory activity toward ZIKV (ZIKV [3]; no reference given): no inhibitory activity

Nc1ncnc2c1ncn2[C@@H]1O[C@H](C[C@@H](N)CC[C@H](N)C(=O)O)[C@@H](O)[C@H]1O [sinefungin]
IC50 (NS5 MTase of DENV): ~0.63 µM
EC50 (ZIKV [3]; ref Dong et al., 2008, Tao et al., 2018, read-out: EC50, anti-virus activity for ZIKV): > 50 µM
IC50 [1]: 4.03 µM
EC50 (WNV): 27 µM
EC50 (DENV): 77 µM
IC50 (NS5 MTase of WNV): ~14 µM
